Source: US12215140B2, “Method of stabilizing protein contained in specimen and solution for stabilizing protein contained in specimen” (EIKEN KAGAKU KABUSHIKI KAISHA, priority 2018, dated 2025)

Target: hemoglobin (Homo sapiens, UniProt P68871+P69905)
Assay: Stability of hemoglobin in samples preserved at 37° C. in preservation solution containing no haptoglobin, Hb measured by latex agglutination method (Examples 8, 9 and Table 10)
Protocol: Preservation solutions were prepared with the addition of 40 mmol/L HEPES (pH 6.8), 0.1% BSA, 0.1% NaN3, and 0 to 2.5 mmol/L phenylboronic acid. […] Samples obtained by adding hemoglobin-added fecal specimens to the preservation solutions so that the fecal concentration would be 0.5% were preserved at 37° C. for 0, 16, 38, and 62 hours. The fecal specimens were added with hemoglobin having an amount such that the hemoglobin concentration in the samples would be about 300 μg/L. Instead of the fecal specimens to which hemoglobin was added, samples containing no fecal specimens, in which hemoglobin was added to the preservation solutions so that the hemoglobin concentration in the samples would be 300 μg/L, were similarly preserved. The hemoglobin (Hb) concentrations (μg/L) in the preserved samples were measured by the latex agglutination method using the same measurement reagent and measurement device as in Example 1.
The concentration of phenylboronic acid in the preservation solutions of Example 8 was fixed to 0.5 mmol/L, preservation solutions to which sorbitol or sucrose was further added at 10 to 250 mmol/L or trehalose, glucose, fructose, or mannitol was further added at 50 to 100 mmol/L were prepared, and testing was conducted in the same manner as in Example 8. In addition, preservation solutions to which the phenylboronic acid was added but no sugar was added were prepared, preservation solutions to which the phenylboronic acid and sugar were not added were prepared for the comparative examples, and testing was conducted in the same manner.
For comparative examples, preservation solutions to which no arylboronic acid was added were prepared, and testing was conducted in the same manner.

[1] = Feces 1, 0 h at 37° C., arylboronic acid 0.5 mmol/L, no sugar
[2] = Feces 1, 16 h at 37° C., arylboronic acid 0.5 mmol/L, no sugar
[3] = Feces 1, 38 h at 37° C., arylboronic acid 0.5 mmol/L, no sugar
[4] = Feces 1, 62 h at 37° C., arylboronic acid 0.5 mmol/L, no sugar
[5] = Feces 1, arylboronic acid 0.5 mmol/L, 0 h at 37° C.
[6] = Feces 1, arylboronic acid 0.5 mmol/L, 16 h at 37° C.
[7] = Feces 1, arylboronic acid 0.5 mmol/L, 38 h at 37° C.
[8] = Feces 1, arylboronic acid 0.5 mmol/L, 62 h at 37° C.
[9] = Feces 1, arylboronic acid 1 mmol/L, 0 h at 37° C.
[10] = Feces 1, arylboronic acid 1 mmol/L, 16 h at 37° C.
[11] = Feces 1, arylboronic acid 1 mmol/L, 38 h at 37° C.
[12] = Feces 1, arylboronic acid 1 mmol/L, 62 h at 37° C.
[13] = Feces 2, 0 h at 37° C., arylboronic acid 0.5 mmol/L, no sugar
[14] = Feces 2, 16 h at 37° C., arylboronic acid 0.5 mmol/L, no sugar
[15] = Feces 2, 38 h at 37° C., arylboronic acid 0.5 mmol/L, no sugar
[16] = Feces 2, 62 h at 37° C., arylboronic acid 0.5 mmol/L, no sugar
[17] = Feces 2, arylboronic acid 0.5 mmol/L, 0 h at 37° C.
[18] = Feces 2, arylboronic acid 0.5 mmol/L, 16 h at 37° C.
[19] = Feces 2, arylboronic acid 0.5 mmol/L, 38 h at 37° C.
[20] = Feces 2, arylboronic acid 0.5 mmol/L, 62 h at 37° C.
[21] = Feces 2, arylboronic acid 1 mmol/L, 0 h at 37° C.
[22] = Feces 2, arylboronic acid 1 mmol/L, 16 h at 37° C.
[23] = Feces 2, arylboronic acid 1 mmol/L, 38 h at 37° C.
[24] = Feces 2, arylboronic acid 1 mmol/L, 62 h at 37° C.
[25] = Feces 3, 0 h at 37° C., arylboronic acid 0.5 mmol/L, no sugar
[26] = Feces 3, 16 h at 37° C., arylboronic acid 0.5 mmol/L, no sugar
[27] = Feces 3, 38 h at 37° C., arylboronic acid 0.5 mmol/L, no sugar
[28] = Feces 3, 62 h at 37° C., arylboronic acid 0.5 mmol/L, no sugar
[29] = Feces 3, arylboronic acid 0.5 mmol/L, 0 h at 37° C.
[30] = Feces 3, arylboronic acid 0.5 mmol/L, 16 h at 37° C.
[31] = Feces 3, arylboronic acid 0.5 mmol/L, 38 h at 37° C.
[32] = Feces 3, arylboronic acid 0.5 mmol/L, 62 h at 37° C.
[33] = Feces 3, arylboronic acid 1 mmol/L, 0 h at 37° C.
[34] = Feces 3, arylboronic acid 1 mmol/L, 16 h at 37° C.
[35] = Feces 3, arylboronic acid 1 mmol/L, 38 h at 37° C.
[36] = Feces 3, arylboronic acid 1 mmol/L, 62 h at 37° C.
[37] = No feces, 0 h at 37° C., arylboronic acid 0.5 mmol/L, no sugar
[38] = No feces, 16 h at 37° C., arylboronic acid 0.5 mmol/L, no sugar
[39] = No feces, 38 h at 37° C., arylboronic acid 0.5 mmol/L, no sugar
[40] = No feces, 62 h at 37° C., arylboronic acid 0.5 mmol/L, no sugar
[41] = No feces, arylboronic acid 0.5 mmol/L, 0 h at 37° C.
[42] = No feces, arylboronic acid 0.5 mmol/L, 16 h at 37° C.
[43] = No feces, arylboronic acid 0.5 mmol/L, 38 h at 37° C.
[44] = No feces, arylboronic acid 0.5 mmol/L, 62 h at 37° C.
[45] = No feces, arylboronic acid 1 mmol/L, 0 h at 37° C.
[46] = No feces, arylboronic acid 1 mmol/L, 16 h at 37° C.
[47] = No feces, arylboronic acid 1 mmol/L, 38 h at 37° C.
[48] = No feces, arylboronic acid 1 mmol/L, 62 h at 37° C.

Chain of hemoglobin (P69905 2-142): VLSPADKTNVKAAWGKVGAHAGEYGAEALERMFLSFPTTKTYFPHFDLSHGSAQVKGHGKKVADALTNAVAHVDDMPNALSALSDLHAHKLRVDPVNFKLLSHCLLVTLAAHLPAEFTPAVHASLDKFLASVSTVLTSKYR
Chain of hemoglobin (P68871 2-147): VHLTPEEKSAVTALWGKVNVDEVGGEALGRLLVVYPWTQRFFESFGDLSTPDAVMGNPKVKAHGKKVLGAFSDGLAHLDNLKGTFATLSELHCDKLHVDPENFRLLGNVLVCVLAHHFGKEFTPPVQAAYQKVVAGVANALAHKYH

Q: What does the source list for `OB(O)c1ccccc1` [PBA]?
A: Hb concentration [1]: 300 µg/L; Recovery ratio with respect to Hb after 0 days [1]: 100%; Hb concentration [2]: 174 µg/L; Recovery ratio with respect to Hb after 0 days [2]: 58%; Hb concentration [3]: 74 µg/L; Recovery ratio with respect to Hb after 0 days [3]: 25%; Hb concentration [4]: 17 µg/L; Recovery ratio with respect to Hb after 0 days [4]: 6%; Hb concentration [5]: 300 µg/L; Recovery ratio with respect to Hb after 0 days [5]: 100%; Hb concentration [6]: 174 µg/L; Recovery ratio with respect to Hb after 0 days [6]: 58%; Hb concentration [7]: 74 µg/L; Recovery ratio with respect to Hb after 0 days [7]: 25%; Hb concentration [8]: 17 µg/L; Recovery ratio with respect to Hb after 0 days [8]: 6%; Hb concentration [9]: 298 µg/L; Recovery ratio with respect to Hb after 0 days [9]: 100%; Hb concentration [10]: 182 µg/L; Recovery ratio with respect to Hb after 0 days [10]: 61%; Hb concentration [11]: 92 µg/L; Recovery ratio with respect to Hb after 0 days [11]: 31%; Hb concentration [12]: 30 µg/L; Recovery ratio with respect to Hb after 0 days [12]: 10%; Hb concentration [13]: 299 µg/L; Recovery ratio with respect to Hb after 0 days [13]: 100%; Hb concentration [14]: 103 µg/L; Recovery ratio with respect to Hb after 0 days [14]: 34%; Hb concentration [15]: 10 µg/L; Recovery ratio with respect to Hb after 0 days [15]: 3%; Hb concentration [16]: 0 µg/L; Recovery ratio with respect to Hb after 0 days [16]: 0%; Hb concentration [17]: 299 µg/L; Recovery ratio with respect to Hb after 0 days [17]: 100%; Hb concentration [18]: 103 µg/L; Recovery ratio with respect to Hb after 0 days [18]: 34%; Hb concentration [19]: 10 µg/L; Recovery ratio with respect to Hb after 0 days [19]: 3%; Hb concentration [20]: 0 µg/L; Recovery ratio with respect to Hb after 0 days [20]: 0%; Hb concentration [21]: 299 µg/L; Recovery ratio with respect to Hb after 0 days [21]: 100%; Hb concentration [22]: 119 µg/L; Recovery ratio with respect to Hb after 0 days [22]: 40%; Hb concentration [23]: 17 µg/L; Recovery ratio with respect to Hb after 0 days [23]: 6%; Hb concentration [24]: 0 µg/L; Recovery ratio with respect to Hb after 0 days [24]: 0%; Hb concentration [25]: 289 µg/L; Recovery ratio with respect to Hb after 0 days [25]: 100%; Hb concentration [26]: 92 µg/L; Recovery ratio with respect to Hb after 0 days [26]: 32%; Hb concentration [27]: 8 µg/L; Recovery ratio with respect to Hb after 0 days [27]: 3%; Hb concentration [28]: 0 µg/L; Recovery ratio with respect to Hb after 0 days [28]: 0%; Hb concentration [29]: 289 µg/L; Recovery ratio with respect to Hb after 0 days [29]: 100%; Hb concentration [30]: 92 µg/L; Recovery ratio with respect to Hb after 0 days [30]: 32%; Hb concentration [31]: 8 µg/L; Recovery ratio with respect to Hb after 0 days [31]: 3%; Hb concentration [32]: 0 µg/L; Recovery ratio with respect to Hb after 0 days [32]: 0%; Hb concentration [33]: 287 µg/L; Recovery ratio with respect to Hb after 0 days [33]: 100%; Hb concentration [34]: 112 µg/L; Recovery ratio with respect to Hb after 0 days [34]: 39%; Hb concentration [35]: 14 µg/L; Recovery ratio with respect to Hb after 0 days [35]: 5%; Hb concentration [36]: 0 µg/L; Recovery ratio with respect to Hb after 0 days [36]: 0%; Hb concentration [37]: 295 µg/L; Recovery ratio with respect to Hb after 0 days [37]: 100%; Hb concentration [38]: 284 µg/L; Recovery ratio with respect to Hb after 0 days [38]: 96%; Hb concentration [39]: 270 µg/L; Recovery ratio with respect to Hb after 0 days [39]: 91%; Hb concentration [40]: 263 µg/L; Recovery ratio with respect to Hb after 0 days [40]: 89%; Hb concentration [41]: 295 µg/L; Recovery ratio with respect to Hb after 0 days [41]: 100%; Hb concentration [42]: 284 µg/L; Recovery ratio with respect to Hb after 0 days [42]: 96%; Hb concentration [43]: 270 µg/L; Recovery ratio with respect to Hb after 0 days [43]: 91%; Hb concentration [44]: 263 µg/L; Recovery ratio with respect to Hb after 0 days [44]: 89%; Hb concentration [45]: 292 µg/L; Recovery ratio with respect to Hb after 0 days [45]: 100%; Hb concentration [46]: 276 µg/L; Recovery ratio with respect to Hb after 0 days [46]: 95%; Hb concentration [47]: 261 µg/L; Recovery ratio with respect to Hb after 0 days [47]: 90%; Hb concentration [48]: 259 µg/L; Recovery ratio with respect to Hb after 0 days [48]: 89%
